Laboratory results: patent publication US20210236494A1, “THERAPEUTIC COMBINATION” (Oncologica UK Ltd., priority 2018, published 2021)

How the values were obtained:
HBEpC cells [1] = test: Flow cytometry of DNA content (cell cycle, sub G1); type: cell-based, human
Experimental: (§1) After 24 hours medium was removed and cells were retransfected with control (20 nmol/L), CDC7 (10 nmol/L) plus control (10 nmol/L), or CDC7 (10 nmol/L) plus p53 (9 nmol/L duplex plus 1 nmol/L SMARTpool) siRNA mixtures. Cells were harvested at the indicated time points after the second transfection. Efficient knockdown was assessed by qRT-PCR and/or Western blot.
(§2) To test this hypothesis, HBEpC bronchial epithelial cells and IMR90 mesenchymal fibroblasts were transfected with CDC7-siRNA or control-siRNA 48 hours prior to treatment with 500 nM paclitaxel or DMSO and then cultured for a further 24 hours. Cells were harvested and apoptosis was monitored by phase contrast microscopy, flow cytometry and western blot detection of pro-caspase 3 and 9 cleavage.

IMR90 cells [2] = test: Flow cytometry of DNA content (cell cycle, sub G1); type: cell-based, human
Experimental: as §1, §2

[3] = tested on: IMR90 mesenchymal diploid fibroblasts; test: Western blotting of whole cell extracts; type: cell-based, human
Experimental: (§3) In addition, whole cell extracts (WCE) were prepared by cell lysis in modified RIPA buffer (50 mmol/L Tris-Cl pH 7.4, 300 mmol/L NaCl, 0.1% NP40, 1% Triton X-100, 0.5% sodium deoxycholate, 0.1% SDS, 5 mmol/L EDTA, 1 mmol/L EGTA, 100 mmol/L sodium fluoride and 1 mmol/L sodium orthovanadate) followed by sonication for 10 seconds. These were analysed by Western Blotting, in which fifty micrograms of protein was loaded in each lane, separated by 4-20% SDS-PAGE, and transferred by semidry electroblotting onto Hybond C Extra nitrocellulose membranes (GE Healthcare, Buckinghamshire, UK).
(§4) Primary antibodies used were: caspase 3 (NB500-210, Novus Biologicals); caspase 9 (sc-17784, Santa Cruz Biotechnology); Cdc7 (K0070-3, MBL International); cyclin A (sc-596, Santa Cruz Biotechnology); cyclin E (MS-870-P, NeoMarkers); Mcm2 pS53 (A300-756A, Bethyl Laboratories); PCNA (610665, BD Biosciences); Rb (554136, BD Biosciences); Rb pS807/811 (9308, Cell Signaling Technologies); TBP (A301-229A, Bethyl Laboratories).
(§5) Blocking, antibody incubations (using various antibodies including anti-Cdc7 or anti-Mcm2 pS53 antibodies), and washing steps were performed.
(§6) Cells were harvested and apoptosis was monitored by phase contrast microscopy, flow cytometry and western blot detection of pro-caspase 3 and 9 cleavage.

[4] = tested on: HBEpC bronchial epithelial primary cells; test: Western blotting of whole cell extracts; type: cell-based, human
Experimental: as §3, §4, §5, §6

HBEpC cells [5] = test: Apoptosis monitored by phase contrast microscopy; type: cell-based, human; conditions: siRNA (CDC7 or control) 48 hours prior to 500 nM paclitaxel for 24 hours
Experimental: as §2

IMR90 cells [6] = test: Apoptosis monitored by phase contrast microscopy; type: cell-based, human; conditions: siRNA (CDC7 or control) 48 hours prior to 500 nM paclitaxel for 24 hours
Experimental: as §2

HBEpC cells [7] = test: Cell population growth by phase contrast microscopy; type: cell-based, human; conditions: 144 hour time course, plateau 48 to 120 hours post-transfection
Experimental: (§7) Phase contrast microscopy was performed over a period of 144 hours with an inverted Aziover 200m (Carl Zeiss, Welwyn Garden City, Uk) and Axiovision software to assess cell population growth.

IMR90 cells [8] = test: as above; type: cell-based, human; conditions: IMR90, 144 hour time course; plateau 48 to 120 hours post-transfection
Experimental: as §7

CDC7 mRNA in HBEpC cells = test: qRT-PCR of CDC7 mRNA after CDC7-siRNA transfection; type: cell-based, human; conditions: 72 hours post-transfection, 25 nM siRNA
Source text: (§8) Cells were then transfected with CDC7-siRNA to inhibit CDC7 expression. Specifically, CDC7 expression was inhibited with custom double-stranded RNA oligos (5′-[…]-3′ (SEQ ID NO 1) and 5′-[…]-3′ (SEQ ID NO 2) Thermo Scientific), using previously described methods (Tudzarove S. et al 2010 supra.). Non-targeting siRNA was used as a negative control (12935-300, Invitrogen). CDC7 or control siRNA duplexes were transfected using Lipofectamine 2000 (11668019, Invitrogen) according to the manufacturer's recommendations at an optimized concentrations of 10 nM for IMR90 and 25 nM for HBEpC.
(§9) At 72 hours post-transfection, CDC7 mRNA levels were measured using qPCR in order to evaluate the efficiency of transfection with CDC7. In particular, Total RNA was isolated from cells with the PureLink Microto-Midi Total RNA Purification System (Invitrogen) according to the manufacturer's instructions. Total RNA (40 ng) was reverse transcribed, and real-time PCR was performed using a SuperScript III Platinum SYBR Green OneStep qRTPCR kit (Invitrogen) following the manufacturer's instructions. Reactions were carried out in an Eppendorf Mastercycler ep Realplex Real-Time PCR System (Eppendorf, Cambridge, UK), and results were analyzed with Realplex v1.5 software (Eppendorf). […]

CDC7 mRNA in IMR90 cells = test: qRT-PCR of CDC7 mRNA after CDC7-siRNA transfection; type: cell-based, human; conditions: IMR90, 72 hours post-transfection, 10 nM siRNA
Source text: as §8, §9

[9] = tested on: SKOV-3, Saos-2, BT-549 and NCI-H322M cells; test: Apoptosis by morphology and western blot of pro-caspase 3 and 9 cleavage in cancer cells; type: cell-based; conditions: 96 hours post-transfection; cancer cells lacking functional p53
Experimental: On this basis, RNAi was then used to investigate the effects of Cdc7 loss in epithelial and mesenchymal cancer cell lines deficient in functional p53. In this experiment, SKOV-3 ovarian carcinoma cells (HTB-77, ATCC) and Saos-2 osteosarcoma cells (HTB-85, ATCC) in McCoy's 5A medium (26600, Invitrogen) supplemented with 15% FBS, BT-549 mammary ductal carcinoma cells (HTB-122, ATCC) in RPMI-1640 medium (52400, Invitrogen) supplemented with 10% FBS and 10 μg/ml insulin (10516, Sigma); and NCI-H322M bronchioalveolar carcinoma cells (95111734, ECACC) in RPMI-1640 medium were used.
Cells were transfected with siRNA as described in Example 1 and the effects on mRNA expression, western blotting and cell population growth were assessed also as described in Example 1.

[10] = siRNA (CDC7 or control) 48 hours prior to 500 nM paclitaxel for 24 hours
[11] = IMR90, siRNA (CDC7 or control) 48 hours prior to 500 nM paclitaxel for 24 hours
[12] = IMR90, 72 hours post-transfection

Row | Molecule | percentage of cells with less than 2C (sub G1) DNA content (HBEpC cells [1]; [10]) [%] | percentage of cells with less than 2C (sub G1) DNA content (IMR90 cells [2]; [11]) [%] | pro-caspase 3 and 9 levels [3, 11] | pro-caspase 3 and 9 levels [4, 10] | cell morphology (apoptosis) (HBEpC cells [5]) | cell morphology (apoptosis) (IMR90 cells [6]) | cell proliferation (cell numbers) (HBEpC cells [7]) | cell proliferation (cell numbers) (IMR90 cells [8]) | cell cycle distribution (HBEpC cells [1]; 72 hours post-transfection) | cells with less than 2C (sub G1) DNA content (HBEpC cells [1]; Cdc7-depleted alone) | cell cycle distribution (IMR90 cells [2]; [12]) | cells with less than 2C (sub G1) DNA content (IMR90 cells [2]; IMR90, Cdc7-depleted alone) | CDC7 mRNA levels reduced relative to control siRNA transfected (CO) cells (CDC7 mRNA in HBEpC cells) [%] | CDC7 mRNA levels reduced relative to control siRNA transfected (CO) cells (CDC7 mRNA in IMR90 cells) [%] | CDC7 protein levels [3, 12] | Mcm2 phosphorylation at Ser-53 [3, 12] | CDC7 protein levels ([4]; 72 hours post-transfection) | Mcm2 phosphorylation at Ser-53 ([4]; 72 hours post-transfection) | apoptosis (morphology, cleavage of pro-caspases 3 and 9 in WCE) [9]
1 | CC(=O)O[C@H]1C(=O)[C@@]2(C)[C@H]([C@H](OC(=O)c3ccccc3)[C@]3(O)C[C@H](OC(=O)[C@H](O)[C@@H](NC(=O)c4ccccc4)c4ccccc4)C(C)=C1C3(C)C)[C@]1(OC(C)=O)CO[C@@H]1C[C@@H]2O [paclitaxel] | 30 | 35 | marked reduction | marked reduction | morphological signs of apoptosis | morphological signs of apoptosis | – | – | – | – | – | – | – | – | – | – | – | – | –
2 | CDC7-siRNA: custom double-stranded RNA oligos (5′-GCUCAGCAGGAAAGGUGUUUU-3′ SEQ ID NO 1 and 5′-AACACCUUUCCUGCUGAGCUU-3′ SEQ ID NO 2) inhibiting CDC7 expression (RNA, backbone not given here) | – | – | – | – | – | – | cessation of cell proliferation | cessation of cell proliferation | accumulation consistent with a G1 arrest | not detected | accumulation consistent with a G1 arrest | not detected | 89 | 87 | undetectable | abolished | undetectable | abolished | Induction of apoptosis
